Reference: ChEMBL document CHEMBL5500360, “Discovery of N-(4-((6-(3,5- Dimethoxyphenyl)-9H-purine derivatives as irreversible covalent FGFR inhibitors” (Eur J Med Chem, 2024)
The source made the active and inactive calls. No cut-off for these calls is given here.

Columns and labels:
[1] = target: Fibroblast growth factor receptor 2 (Homo sapiens, UniProt P21802); assay: Inhibition of FGFR2 (unknown origin) by ELISA
MDA-MB-231 [2] = assay: Cell cycle arrest in human MDA-MB-231 cells assessed as accumulation of G0-G1 phase cells at 2.5 uM incubated for 24 hrs by […]PI staining based flow cytometric analysis (reference value: 41.83%); assay type: functional
MDA-MB-231 [3] = assay: Cell cycle arrest in human MDA-MB-231 cells assessed as accumulation of G2-M phase cells at 2.5 uM incubated for 24 hrs by […]PI staining based flow cytometric analysis (reference value: 16.88%); assay type: functional
MDA-MB-231 [4] = assay: Cell cycle arrest in human MDA-MB-231 cells assessed as accumulation of S phase cells at 2.5 uM incubated for 24 hrs by […]PI staining based flow cytometric analysis (reference value: 41.29%); assay type: functional
MDA-MB-231 [5] = assay: Cell cycle arrest in human MDA-MB-231 cells assessed as accumulation of S phase cells at 5 uM incubated for 24 hrs by […]PI staining based flow cytometric analysis (reference value: 41.29%); assay type: functional
MDA-MB-231 [6] = assay: Cell cycle arrest in human MDA-MB-231 cells assessed as accumulation of G0-G1 phase cells at 10 uM incubated for 24 hrs by […]PI staining based flow cytometric analysis (reference value: 41.83%); assay type: functional
MDA-MB-231 [7] = assay: Cell cycle arrest in human MDA-MB-231 cells assessed as accumulation of G2-M phase cells at 10 uM incubated for 24 hrs by […]PI staining based flow cytometric analysis (reference value: 16.88%); assay type: functional
MDA-MB-231 [8] = assay: Cell cycle arrest in human MDA-MB-231 cells assessed as accumulation of S phase cells at 10 uM incubated for 24 hrs by […]PI staining based flow cytometric analysis (reference value: 41.29%); assay type: functional
MDA-MB-231 [9] = assay: Induction of apoptosis in human MDA-MB-231 cells assessed as early apoptotic cells at 5 uM incubated for 24 hrs by Annexin V-FITC/PI staining based flow cytometric analysis (reference value: 0.131 %); assay type: functional
MDA-MB-231 [10] = assay: Induction of apoptosis in human MDA-MB-231 cells assessed as early apoptotic cells at 10 uM incubated for 24 hrs by Annexin V-FITC/PI staining based flow cytometric analysis (reference value: 0.131 %); assay type: functional
MDA-MB-231 [11] = assay: Induction of apoptosis in human MDA-MB-231 cells assessed as late apoptotic cells at 10 uM incubated for 24 hrs by Annexin V-FITC/PI staining based flow cytometric analysis (reference value: 0.161 %); assay type: functional
MDA-MB-231 [12] = assay: Induction of apoptosis in human MDA-MB-231 cells assessed as apoptotic cells at 10 uM incubated for 24 hrs by Annexin V-FITC/PI staining based flow cytometric analysis relative to control; assay type: functional
MDA-MB-231 [13] = assay: Induction of apoptosis in human MDA-MB-231 cells assessed as inhibition of total PARP protein expression incubated for 24 hrs by Western blot analysis; assay type: functional, cell-based; conditions: dose 2.5-10 µM
MDA-MB-231 [14] = assay: Induction of apoptosis in human MDA-MB-231 cells assessed as inhibition of Bcl-2 protein expression incubated for 24 hrs by Western blot analysis; assay type: functional, cell-based; conditions: dose 2.5-10 µM
MDA-MB-231 [15] = assay: Effect on FGFR1 protein expression in human MDA-MB-231 cells at 5 to 10 uM incubated for 24 hrs by Western blot analysis; assay type: functional, cell-based; conditions: dose 5-10 µM
MDA-MB-231 [16] = assay: Effect on ERK protein expression in human MDA-MB-231 cells at 5 to 10 uM incubated for 24 hrs by Western blot analysis; assay type: functional, cell-based; conditions: dose 5-10 µM
[17] = Metabolic stability in human liver microsomes assessed as parent compound remaining at 1 uM measured after 45 mins by LC-MS/MS analysis; assay type: ADME, Microsome; conditions: read-out: Stability
[18] = Metabolic stability in rat liver microsomes assessed as parent compound remaining at 1 uM measured after 5 mins by LC-MS/MS analysis; assay type: ADME, Microsome; conditions: read-out: Stability
[19] = Metabolic stability in human liver microsomes assessed as intrinsic clearance at 1 uM incubated for 45 mins by LC-MS/MS analysis; assay type: ADME, Microsome; conditions: read-out: CLH
[20] = Metabolic stability in rat liver microsomes assessed as half-life at 1 uM incubated for 45 mins by LC-MS/MS analysis; assay type: ADME, Microsome
[21] = Metabolic stability in rat liver microsomes assessed as intrinsic clearance at 1 uM incubated for 45 mins by LC-MS/MS analysis; assay type: ADME, Microsome; conditions: read-out: CLH
[22] = Metabolic stability in mouse liver microsomes assessed as intrinsic clearance at 1 uM incubated for 45 mins by LC-MS/MS analysis; assay type: ADME, Microsome; conditions: read-out: CLH
MDA-MB-231 [23] = assay: Antitumor activity against human MDA-MB-231 cells xenografted in female BALB/c athymic nude mouse assessed as tumor growth inhibition at 10 mg/kg, po administered once a day via gavage for 21 days relative to control; assay type: functional; conditions: MDA-MB-231, 504 h, time 21 day, read-out: TGI
[24] = Toxicity in BALB/c athymic nude mouse xenografted with human MDA-MB-231 cells assessed as body weight loss at 10 to 30 mg/kg, po administered once a day via gavage for 21 days; assay type: organism-based; conditions: in vivo, 504 h, dose 10-30 mg/kg, time 21 day
[25] = Toxicity in BALB/c athymic nude mouse xenografted with human MDA-MB-231 cells assessed as effect on heart at 10 to 30 mg/kg, po administered once a day via gavage for 21 days by H and E staining based analysis; assay type: organism-based; conditions: in vivo, 504 h, dose 10-30 mg/kg, time 21 day
[26] = Toxicity in BALB/c athymic nude mouse xenografted with human MDA-MB-231 cells assessed as effect on lung at 10 to 30 mg/kg, po administered once a day via gavage for 21 days by H and E staining based analysis; assay type: organism-based; conditions: in vivo, 504 h, dose 10-30 mg/kg, time 21 day
MDA-MB-435 = assay: cells; conditions: Homo sapiens, MDA-MB-435, 72 h
Description: Antiproliferative activity against human MDA-MB-435 cells assessed as inhibition of cell growth incubated for 72 hrs by MTT assay

MDA-MB-231 [27] = assay: cells; conditions: Homo sapiens, MDA-MB-231, 72 h
KYSE-150 cell line = assay: cells; conditions: Homo sapiens, KYSE-150, 72 h
Description: Antiproliferative activity against human KYSE-150 cells assessed as inhibition of cell growth incubated for 72 hrs by MTT assay

HepG2 = assay: cells; conditions: Homo sapiens, HepG2, 72 h

Sequence of Fibroblast growth factor receptor 2 (P21802 whole entry): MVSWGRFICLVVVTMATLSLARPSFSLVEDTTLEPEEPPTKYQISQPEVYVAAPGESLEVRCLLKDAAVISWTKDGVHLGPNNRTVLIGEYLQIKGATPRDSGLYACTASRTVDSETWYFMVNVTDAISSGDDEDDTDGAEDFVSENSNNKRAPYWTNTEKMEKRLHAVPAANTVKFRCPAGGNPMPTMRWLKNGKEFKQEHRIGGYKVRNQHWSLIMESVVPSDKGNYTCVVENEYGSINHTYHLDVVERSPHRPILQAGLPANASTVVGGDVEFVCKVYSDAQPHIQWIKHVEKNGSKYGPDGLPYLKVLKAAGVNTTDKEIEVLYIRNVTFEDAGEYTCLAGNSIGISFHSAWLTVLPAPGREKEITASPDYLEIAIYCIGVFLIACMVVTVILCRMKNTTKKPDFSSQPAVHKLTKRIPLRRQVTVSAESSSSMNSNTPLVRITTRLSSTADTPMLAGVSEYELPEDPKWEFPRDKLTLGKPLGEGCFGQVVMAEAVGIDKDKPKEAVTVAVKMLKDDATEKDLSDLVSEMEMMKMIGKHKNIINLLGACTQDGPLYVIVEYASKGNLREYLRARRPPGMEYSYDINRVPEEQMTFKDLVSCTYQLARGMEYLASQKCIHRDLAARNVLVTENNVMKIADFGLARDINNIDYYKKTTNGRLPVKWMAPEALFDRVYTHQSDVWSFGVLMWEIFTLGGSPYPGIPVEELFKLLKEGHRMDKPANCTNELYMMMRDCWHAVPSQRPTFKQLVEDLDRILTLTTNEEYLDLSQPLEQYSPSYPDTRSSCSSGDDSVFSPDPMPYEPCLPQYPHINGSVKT

## C=CC(=O)Nc1ccc(Cn2cnc3c(-c4cc(OC)cc(OC)c4)ncnc32)cc1
[1]
  IC50: 0.89 nM
MDA-MB-231 [2]
  Activity: 50.81%
MDA-MB-231 [3]
  Activity: 14.94%
MDA-MB-231 [4]
  Activity: 34.25%
MDA-MB-231 [5]
  Activity: 22.82%
MDA-MB-231 [6]
  Activity: 73.78%
MDA-MB-231 [7]
  Activity: 15.49%
MDA-MB-231 [8]
  Activity: 10.73%
MDA-MB-231 [9]
  Activity: 34.92%
MDA-MB-231 [10]
  Activity: 45.4%
MDA-MB-231 [11]
  Activity: 15.73%
MDA-MB-231 [12]
  Activity: 56.8%
MDA-MB-231 [13]
  Activity: Dose-Dependent Effect
MDA-MB-231 [14]
  Activity: Dose-Dependent Effect
MDA-MB-231 [15]
  Activity: inactive
MDA-MB-231 [16]
  Activity: inactive
[17]
  remaining at 0.75 h, 1 µM: 33.8%
[18]
  remaining at 5 min, 1 µM: 73.4%
[19]
  CLint scaled at 1 µM: 42 mL/min/kg
[20]
  half-life at 1 µM: 15.9 min
[21]
  CLint scaled at 1 µM: 156 mL/min/kg
[22]
  CLint scaled at 1 µM: 424 mL/min/kg
MDA-MB-231 [23]
  inhibition in vivo at 10 mg/kg: 40.2%
[24]
  Activity: Non-Toxic
[25]
  Activity: Non-Toxic
[26]
  Activity: Non-Toxic
MDA-MB-435
  IC50: 9170 nM
MDA-MB-231 [27]
  IC50: 1890 nM
KYSE-150 cell line
  IC50: 1930 nM
HepG2
  IC50: 7930 nM
